What was measured:
rats = conditions: acute toxicity; cited from earlier work
[1] = test system: White rats fed with a standard food and drink diet; assay: Total blood serum cholesterol in rats on normal diet, 36-week intragastrular administration; type: in vivo, rat; conditions: 36 weeks
Protocol: White rats (mails) were fed with a standard food and drink diet. Experimental and control groups (7 animals in each) were formed by randomization using body mass as the principal feature. EBI was administered to the experimental animals intragastrularly as a water solution during 36 weeks. The control group received an equivalent amount of placebo. At the end of each experiment, animals were decapitated under light ether narcosis 18 hours after food withdrawal. Total cholesterol in blood serum was measured enzymatically.

[2] = test system: Volunteers with a high level of cholesterol; assay: Total cholesterol in volunteers with high cholesterol after four-week administration; type: in vivo, human
Protocol: Volunteers with a high level of cholesterol were selected for clinical study. During the experiment, each patient had their normal personal diet without any special limitations (fats, high-cholesterol food, etc.). All the patients received daily EBI (2.5 mcg) dissolved in ethanol (0.03 ml) and mixed with water (50 ml). Administering the EBI was not adjusted with the meal-receiving time.

[3] = prolonged and chronic experiments; cited from earlier work
Solubility in water = type: physicochemical
Text: Compositions useful for administration of EBI can be easily prepared. The simplest way is the use of water-based solutions. […] Preferable concentrations are laying in the range of 10^−5–10^−6% that corresponds to 0.1–0.01 mcg/ml. […] Other drinkable or eatable forms and non-aqueous carriers may also be used.

[4] = test system: rats fed with high-cholesterol diet; assay: Lipid metabolism and redox-vitamins in blood serum of rats under high-cholesterol diet, four-week administration; type: in vivo, rat; conditions: 4 weeks; for HDL / LDL / VLDL: blood serum lipoprotein fraction; for HDL / LDL / VLDL / Total cholesterol / Triglycerids / Vitamin A / Vitamin E: high-cholesterol diet; for Total cholesterol / Triglycerids / Vitamin A / Vitamin E: blood serum
Protocol: Forty white rats (mails) were divided for four groups (ten in each) by randomization using body mass as the principal feature. One group (control) was fed with a normal diet, and three others were fed with a high-cholesterol diet. The latter once received three times per week special food with the following additives: cholesterol (500 mg/kg), vitamin D3 (10000 ME/kg) and pork fat (1000 mg/kg). As a drink, these animals daily received a mixture (1:1) of glucose (5% water solution) and sodium chloride (2.5% water solution). Two groups of animals fed with the high-cholesterol diet received daily a water solution of EBI intragastrularly, and the control group received an equivalent amount of placebo. At the end of each experiment, animals were decapitated under light ether narcosis 18 hours after food withdrawal. Total cholesterol and triglycerides in blood serum were measured enzymatically. Lipoproteins were divided by electrophoresis in agar gel, then dyed with lipid-specific stuff and measured by a direct densitometry. Vitamins A and E were measured by fluorimetric analysis.

mice = conditions: acute toxicity; cited from earlier work
[5] = 2 mcg/kg daily, listed as 24-epibrassinolide
[6] = 20 mcg/kg daily, listed as 24-epibrassinolide

## CC(C)[C@@H](C)[C@@H](O)[C@H](O)[C@@H](C)[C@H]1CC[C@H]2[C@@H]3COC(=O)[C@H]4C[C@H](O)[C@H](O)C[C@]4(C)[C@H]3CC[C@]12C [EBI, 24-epibrassinolide]
rats
  LD50: more than 2000 mg/kg
[1]; 0.2 mcg/kg intragastrular
  total blood serum cholesterol: 62.17 ± 5.54 mg/deciliter
  total blood serum cholesterol, percentage change vs control: −9%
[1]; 2 mcg/kg intragastrular
  total blood serum cholesterol: 57.81 ± 6.34 mg/deciliter
  total blood serum cholesterol, percentage change vs control: −15%
[1]; 20 mcg/kg intragastrular
  total blood serum cholesterol: 54.25 ± 3.17 mg/deciliter
  total blood serum cholesterol, percentage change vs control: (−20%)
[1]; 200 mcg/kg intragastrular
  total blood serum cholesterol: 51.08 ± 5.15 mg/deciliter
  total blood serum cholesterol, percentage change vs control: (−25%)
[1]; normal cholesterol
  lower cholesterol (lowering depending on dose): 9–25%
[2]; 6 volunteers with hypercholesterolemia, 2.5 mcg daily, 4 weeks
  plasma total cholesterol lower than the starting level, on average: 38%
[2]; humans, 2.5 mcg daily oral, start 287.1 ± 38.8
  Total Cholesterol in Plasma (after 4 weeks): 177.8 ± 12.3 mg/deciliter
[2]; humans, 2.5 mcg daily, 4 weeks, vs start
  Percentage Change in Cholesterol: −38%
[3]
  postponed negative effects: no postponed negative effects
Solubility in water
  solubility in water: relatively small
[4]; 2 mcg/kg daily
  HDL, percentage related to the high-cholesterol diet: −1%
  LDL, percentage related to the high-cholesterol diet: 0%
  Total cholesterol, percentage related to the high-cholesterol diet: (−34%)
  Triglycerids, percentage related to the high-cholesterol diet: −58%
  VLDL, percentage related to the high-cholesterol diet: +9%
  Vitamin A, percentage related to the high-cholesterol diet: 16%
  Vitamin E, percentage related to the high-cholesterol diet: 53%
  reduction of plasma concentration of total cholesterol vs high-cholesterol diet without EBI: 34%
  reduction of plasma concentration of triglycerides vs high-cholesterol diet without EBI: 58%
  HDL: 19.45 ± 1.14%
  LDL: 75.24 ± 1.23%
  VLDL: 5.31 ± 0.24%
  Total cholesterol: 64.94 ± 5.15 mg/deciliter
  Triglycerids: 0.80 ± 0.09 mmol/L
  Vitamin A: 0.26 ± 0.02 mmol/L
  Vitamin E: 1.90 ± 0.14 mmol/L
[4]; [5]
  Vitamin A, percentage related to the high-cholesterol diet: +16%
  Vitamin E, percentage related to the high-cholesterol diet: (+53%)
[4]; 20 mcg/kg daily
  HDL, percentage related to the high-cholesterol diet: 47%
  LDL, percentage related to the high-cholesterol diet: (−11%)
  Total cholesterol, percentage related to the high-cholesterol diet: (−44%)
  Triglycerids, percentage related to the high-cholesterol diet: −68%
  VLDL, percentage related to the high-cholesterol diet: −11%
  Vitamin A, percentage related to the high-cholesterol diet: 30%
  Vitamin E, percentage related to the high-cholesterol diet: 51%
  reduction of low-density lipoprotein vs high-cholesterol diet only: 11%
  reduction of plasma concentration of total cholesterol vs high-cholesterol diet only: 44%
  reduction of plasma concentration of triglycerides vs high-cholesterol diet only: 68%
  HDL: 28.72 ± 1.22 %
  LDL: 66.97 ± 1.23 %
  VLDL: 4.33 ± 0.45%
  Total cholesterol: 55.04 ± 4.36 mg/deciliter
  Triglycerids: 0.60 ± 0.04 mmol/L
  Vitamin A: 0.29 ± 0.01 mmol/L
  Vitamin E: 1.88 ± 0.10 mmol/L
[4]; [6]
  HDL, percentage related to the high-cholesterol diet: (+47%)
  Vitamin A, percentage related to the high-cholesterol diet: (+30%)
  Vitamin E, percentage related to the high-cholesterol diet: (+51%)
[4]; 20 mcg/kg
  decrease of VLDL level: 11%
[4]; doses of 2 and 20 mcg/kg
  decrease of total cholesterol: 34–44%
  decrease of triglycerides: 58–68%
mice
  LD50: more than 1000 mg/kg

From patent US6998397B2, “Method for decreasing cholesterol level in blood” (Drebsk Comptech, Inc., priority 2004, dated 2006)
